Measured values from patent US20240336573A1, “COMPOUND FOR THE TREATMENT AND PROPHYLAXIS OF INFECTIOUS DISEASES” (Eberhard Karls Universität Tübingen Medizinische Fakultät, priority 2021, published 2024).

How the values were obtained:
E. coli JW2496-3 = assay: Sensitizer MIC assay (vancomycin); type: cell-based; details: 100 μM compound, more susceptible strain
Experimental: (§1) To test for the sensitizer properties of the compounds, the inventors then performed a sensitizer MIC assay. To this end, E. coli BW25113, E. coli JW2496-3, and E. coli ATCC 25922 inocula were prepared as described above. Each well of a 96-well plate was prefilled with a fixed compound concentration of 100 μM and a dilution series of Vancomycin ranging from […]. A sensitizing effect was defined as reduction of the MIC value of Vancomycin of the respective test strain.

E. coli BW25113 = assay: Sensitizer MIC assay (vancomycin); type: cell-based; details: 100 μM compound, wildtype strain
Experimental: as §1

E. coli ATCC 25922 = assay: Sensitizer MIC assay (vancomycin); type: cell-based; details: vancomycin; 100 μM compound; type strain
Experimental: as §1

[1] = tested on: E. coli BW25113, E. coli JW2496-3, E. coli ATCC 25922; assay: Minimal inhibitory concentration assay (bactericidal/bacteriostatic assessment); type: cell-based; details: dilution series 100-1.7 μM
Text: The intended effect of a SurA inhibitor should be the induction of a disturbance of the outer membrane composition resulting in an increased susceptibility to antibiotic treatment. Of note, Vancomycin is typically not used to treat infections with Gram-negative bacteria, because it is excluded by the OM and not efficient at concentrations that could be achieved in patients. However, at appropriate dosing in vitro it can be used to detect outer membrane defects. For determining a potential sensitizing effect of Vancomycin treatment, the inventors first tested whether the compounds at hand were bactericidal per se. Therefore, the inventors performed a minimal inhibitory concentration (MIC) assay. To this end, 5 ml overnight cultures of E. coli BW25113 (Keio-Collection reference strain), E. coli JW2496-3 (Keio-Collection single gene knockout for bamB, which suffers from decreased outer membrane integrity) and E. coli ATCC 25922 (a reference strain recommended for antibiotic susceptibility testing) were grown in Mueller Hinton Broth, Cation adjusted (MHB-II). The next day, the OD was adjusted to obtain 1*10^8 CFU/ml using fresh MHB-II. Next, this bacterial solution was diluted 1:100 into 20 ml fresh MHB-II. 50 μl of this bacteria solution were then transferred into each well of a 96-well plate prefilled with 50 μl MHB-II supplemented with the desired compounds. The test plates for the bactericidal assessment contained dilution series of the compounds from 100-1.7 μM. Plates were sealed with a gas permeable membrane and incubated o/n at 37° C. in a humid chamber without shaking. After o/n incubation, bacterial growth was quantified by measuring the optical density at 600 nm wavelength in a multiplate reader. Compounds showing no growth inhibition at 100 μM were considered non-bactericidal. Of note, the bactericidal effect of Vancomycin was assessed similarly for each test strain using Vancomycin concentrations ranging from […]. This was done to identify a Vancomycin concentration at which the strains just managed to survive.

SurA = SurA (Escherichia coli, UniProt P0ABZ6); assay: Luciferase-based SurA activity assay (primary assay, in-house); type: biochemical, E. coli; details: n/d: no signal detected; for Primary Assay ICmax: QHL-10 derivatives, dose response up to 125 μM; for Primary Assay Amplitude: amplitude of signal
Chain of SurA (P0ABZ6 21-428): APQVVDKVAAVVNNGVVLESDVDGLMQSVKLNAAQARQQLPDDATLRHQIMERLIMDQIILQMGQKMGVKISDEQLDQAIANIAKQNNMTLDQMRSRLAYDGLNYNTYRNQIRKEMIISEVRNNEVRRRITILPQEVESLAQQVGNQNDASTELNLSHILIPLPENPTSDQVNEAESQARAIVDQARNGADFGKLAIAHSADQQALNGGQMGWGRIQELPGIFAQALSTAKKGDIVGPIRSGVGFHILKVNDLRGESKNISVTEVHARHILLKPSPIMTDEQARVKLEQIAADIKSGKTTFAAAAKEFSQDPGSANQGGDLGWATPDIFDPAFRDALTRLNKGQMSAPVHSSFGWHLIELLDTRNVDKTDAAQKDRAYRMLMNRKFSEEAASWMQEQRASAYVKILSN
Text: The biological function of SurA is to bind and to keep outer membrane proteins that have reached the periplasm in an unfolded but folding-competent state. The inventors' assay is based on this interaction and uses firefly Luciferase (fLuc) as a non-native substrate. […] This is exploited in the assay (FIG. 3). The loss of tertiary structure of fLuc leads to the exposure of binding sites for SurA. It is known that SurA binds selectively to a special group of substrates. These substrates have in common the specific patterns of hydrophobic amino acids that are highly enriched in the beta strands of integral outer membrane proteins. These motifs are present in OMPs of all Gram-negative bacteria and in fLuc as well. Upon mild heat treatment of fLuc and its subsequent partial unfolding, fLuc is accepted as a substrate by SurA. Of note, these intermediates served as reporter substrates to determine the activity of a […] folding chaperone. […] This interaction remains stable upon temperature reduction. Next, the temperature of the assay is reduced to room temperature and luciferase activity is subsequently measured by addition of Luciferin and ATP. In conditions without SurA, fLuc will refold into its active conformation resulting in a luminescence signal.
In short, the Luciferase based SurA activity assay was performed in SurA Activity Assay Buffer (40 mM HEPES pH 7.4, 20 mM MgSO4, 0.5 g/I BSA). SurA aliquots were thawn at RT, activated by mild heat treatment and cooled down to RT for 10 min. […] Solution A containing 10 mM ATP as well as 0.3 mM Luciferin (Promega Beetle Luciferin, Potassium Salt) in water was prepared. Luciferase working solution was prepared by diluting 1 ml Luciferase working stock (100 nM) with 9 ml assay buffer. 33 μl of the protein solution were added to every 2nd row of a well of a 384-well PS, white, flat bottom plate. […] Subsequently, 2 μl of compound in DMSO were added in quadruplicates (4 wells each of protein solution and buffer controls). These compound solutions could contain either various compounds or different dilutions of the same compound allowing screening inhibitor activity in a dose dependent manner. After compound addition, plates were incubated 15 min at RT. After this incubation, 5 μl of Luciferase working solution were added to each well. Next, the plates were incubated 25 min at 38° C. to partially unfold the Luciferase. Subsequently, the assay plate was cooled for 5 min at 4° C. followed by 10 min incubation at RT prior to luminescence measurement. Luminescence was measured in a TECAN infinite M200 pro plate reader for each well individually after injection of 10 μl Solution A.

Compound | Sensitizer MIC Assay (log2-fold reduction of MIC in presence of compound) JW2496-3 (E. coli JW2496-3) | Sensitizer MIC Assay (log2-fold reduction of MIC in presence of compound) BW25113 (E. coli BW25113) | Sensitizer MIC Assay (log2-fold reduction of MIC in presence of compound) ATCC25922 (E. coli ATCC 25922) | Bacteriostatic MIC Assay Result [1] | Primary Assay ICmax (SurA) | Primary Assay Amplitude (SurA)
NC(=O)c1nc(-c2ccc(F)c(N)c2)[nH]c1NC(=O)Cc1cccc2ccccc12 [Compound 3k, 2-(3-amino-4-fluorophenyl)-5-(2-(naphthalen-1-yl)acetamido)-1H-imidazole-4-carboxamide] | 0 log2-fold | 0 log2-fold | 0 log2-fold | non-bacteriostatic | – | –
NC(=O)c1nc(-c2cc(F)c(F)c(F)c2)[nH]c1NC(=O)c1ccccc1OCc1ccccc1 [Compound 3p, 5-(2-(benzyloxy)benzamido)-2-(3,4,5-trifluorophenyl)-1H-imidazole-4-carboxamide] | – | – | – | slightly | – | –
NC(=O)c1nc(-c2ccccc2O)[nH]c1NC(=O)c1ccc(-c2ccccc2)cc1 [Compound 3c, 5-([1,1′-biphenyl]-4-carboxamido)-2-(2-hydroxyphenyl)-1H-imidazole-4-carboxamide] | 1-2 log2-fold | 0 log2-fold | 1-2 log2-fold | non-bacteriostatic | 8 µM | high
CCOc1ccc2ccccc2c1C(=O)Nc1[nH]c(-c2ccccc2O)nc1C(N)=O [Compound 3f, 5-(2-ethoxy-1-naphthamido)-2-(2-hydroxyphenyl)-1H-imidazole-4-carboxamide] | 2 log2-fold | 1 log2-fold | 1 log2-fold | non-bacteriostatic | 16 µM | low
CCOC(=O)COc1ccc(Cc2nc(C(N)=O)c(NC(=O)c3ccc(-c4ccccc4)cc3)[nH]2)cc1 [Compound 1a, Ethyl 2-(4-((5-([1,1′-biphenyl]-4-carboxamido)-4-carbamoyl-1H-imidazol-2-yl)methyl)-phenoxy)acetate] | 0 log2-fold | 0 log2-fold | 0 log2-fold | non-bacteriostatic | 16 µM | high
NC(=O)c1nc(-c2cccc(N)c2)[nH]c1NC(=O)c1ccc(-c2ccccc2)cc1 [Compound 3b, 5-([1,1′-biphenyl]-4-carboxamido)-2-(3-aminophenyl)-1H-imidazole-4-carboxamide] | 1-3 log2-fold | 1 log2-fold | 1 log2-fold | non-bacteriostatic | 8 µM | high
NC(=O)c1nc(Cc2ccc(OCC(=O)O)cc2)[nH]c1NC(=O)c1cccc(-c2ccccc2)c1 [Compound 2b, 2-(4-((5-([1,1′-biphenyl]-3-carboxamido)-4-carbamoyl-1H-imidazol-2-yl)methyl)phenoxy)acetic acid] | 0 log2-fold | 0 log2-fold | 0 log2-fold | non-bacteriostatic | 64 µM | low
NC(=O)c1nc(Cc2ccc(OCC(=O)O)cc2)[nH]c1NC(=O)c1ccccc1-c1ccccc1 [Compound 2c, 2-(4-((5-([1,1′-biphenyl]-2-carboxamido)-4-carbamoyl-1H-imidazol-2-yl)methyl)phenoxy)acetic acid] | 0 log2-fold | 0 log2-fold | 0 log2-fold | non-bacteriostatic | – | –
NC(=O)c1nc(-c2ccccc2O)[nH]c1NC(=O)Cc1cccc2ccccc12 [Compound 3j, 2-(2-hydroxyphenyl)-5-(2-(naphthalen-1-yl)acetamido)-1H-imidazole-4-carboxamide] | 1-4 log2-fold | 0 log2-fold | 1 log2-fold | non-bacteriostatic | – | –
NC(=O)c1nc(Cc2ccc(OCc3ccccc3)cc2)[nH]c1NC(=O)c1ccc(-c2ccccc2)cc1 [Compound 1d, 5-([1,1′-biphenyl]-4-carboxamido)-2-(4-(benzyloxy)benzyl)-1H-imidazole-4-carboxamide] | 0 log2-fold | 0 log2-fold | 0 log2-fold | non-bacteriostatic | 32 µM | low
CCOC(=O)COc1ccc(Cc2nc(C(N)=O)c(NC(=O)c3cccc(-c4ccccc4)c3)[nH]2)cc1 [Compound 1b, Ethyl 2-(4-((5-([1,1′-biphenyl]-3-carboxamido)-4-carbamoyl-1H-imidazol-2-yl)methyl)phenoxy)acetate] | – | – | – | non-bacteriostatic | – | –
NC(=O)c1nc(Cc2ccc(O)cc2)[nH]c1NC(=O)c1ccc(-c2ccccc2)cc1 [Compound 2d, 5-([1,1′-biphenyl]-4-carboxamido)-2-(4-hydroxybenzyl)-1H-imidazole-4-carboxamide] | – | – | – | non-bacteriostatic | 16 µM | high
COc1ccc(Cc2nc(C(N)=O)c(NC(=O)c3ccc(-c4ccccc4)cc3)[nH]2)cc1 [Compound 1f, 5-([1,1′-biphenyl]-4-carboxamido)-2-(4-methoxybenzyl)-1H-imidazole-4-carboxamide] | – | – | – | slightly | 16 µM | high
NC(=O)c1nc(-c2cccc(N)c2)[nH]c1NC(=O)Cc1cccc2ccccc12 [Compound 3i, 2-(3-aminophenyl)-5-(2-(naphthalen-1-yl)acetamido)-1H-imidazole-4-carboxamide] | – | – | – | non-bacteriostatic | – | –
